Tests used:
[1] = Cytotoxicity against African green monkey Vero cells assessed as inhibition of cell growth measured after 3 days by MTT assay; assay type: toxicity, cell-based; settings: African green monkey (Chlorocebus sabaeus)
MCF7 = assay: Cytotoxicity against human MCF7 cells assessed as inhibition of cell growth measured after 3 days by MTT assay; assay type: functional, cell-based; settings: MCF7, 72 h
[2] = Inhibition of HER2 expression in human MCF7 cells assessed as positive expression region (M2) at 50 nM incubated for 24 hrs by flow cytometry analysis (reference value: 99.09%); assay type: functional
[3] = Inhibition of EGFR expression in human MCF7 cells assessed as positive expression region (M2) at 500 nM incubated for 24 hrs by flow cytometry analysis (reference value: 99.36%); assay type: functional
[4] = molecular target: Epidermal growth factor receptor (Homo sapiens, UniProt P00533); assay: Inhibition of wild type EGFR (unknown origin) incubated for 40 mins in presence of ATP by kinase glo max assay
Chain of Epidermal growth factor receptor (P00533 whole entry): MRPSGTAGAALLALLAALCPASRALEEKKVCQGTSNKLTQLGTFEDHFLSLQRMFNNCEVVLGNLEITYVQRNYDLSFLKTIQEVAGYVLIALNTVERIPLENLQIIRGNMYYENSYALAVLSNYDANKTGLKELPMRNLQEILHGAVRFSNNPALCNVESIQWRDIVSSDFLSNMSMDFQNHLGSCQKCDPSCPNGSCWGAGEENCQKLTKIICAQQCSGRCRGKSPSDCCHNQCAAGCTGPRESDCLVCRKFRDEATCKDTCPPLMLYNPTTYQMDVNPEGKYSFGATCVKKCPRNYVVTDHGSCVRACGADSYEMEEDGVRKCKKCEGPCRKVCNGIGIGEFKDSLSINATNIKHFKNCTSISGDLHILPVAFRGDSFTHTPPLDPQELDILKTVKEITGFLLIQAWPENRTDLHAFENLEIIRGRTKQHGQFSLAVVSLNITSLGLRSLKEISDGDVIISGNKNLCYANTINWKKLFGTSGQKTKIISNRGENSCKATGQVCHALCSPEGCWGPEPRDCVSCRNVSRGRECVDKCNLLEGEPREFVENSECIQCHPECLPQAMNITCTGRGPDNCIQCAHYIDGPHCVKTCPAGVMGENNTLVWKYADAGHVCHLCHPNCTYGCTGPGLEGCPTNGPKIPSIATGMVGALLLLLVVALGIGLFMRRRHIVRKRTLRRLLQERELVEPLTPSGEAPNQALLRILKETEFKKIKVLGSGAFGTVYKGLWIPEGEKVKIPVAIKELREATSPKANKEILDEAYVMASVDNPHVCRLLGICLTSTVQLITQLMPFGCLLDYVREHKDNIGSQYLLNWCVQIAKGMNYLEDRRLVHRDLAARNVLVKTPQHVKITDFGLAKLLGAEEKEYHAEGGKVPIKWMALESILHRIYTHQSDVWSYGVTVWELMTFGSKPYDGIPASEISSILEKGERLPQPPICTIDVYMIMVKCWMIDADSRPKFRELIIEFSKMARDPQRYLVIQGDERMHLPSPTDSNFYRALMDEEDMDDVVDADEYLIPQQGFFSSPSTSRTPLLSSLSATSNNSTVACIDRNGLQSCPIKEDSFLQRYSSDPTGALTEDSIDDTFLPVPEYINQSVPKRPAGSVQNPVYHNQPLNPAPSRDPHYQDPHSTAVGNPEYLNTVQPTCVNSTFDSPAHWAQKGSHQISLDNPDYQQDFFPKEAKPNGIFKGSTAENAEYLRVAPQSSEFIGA

[5] = Inhibition of EGFR expression in human MCF7 cells assessed as positive expression region (M2) at 1000 nM incubated for 24 hrs by flow cytometry analysis (reference value: 99.36%); assay type: functional
[6] = Inhibition of EGFR expression in human MCF7 cells assessed as positive expression region (M2) at 50 nM incubated for 24 hrs by flow cytometry analysis (reference value: 99.36%); assay type: functional
[7] = Inhibition of HER2 expression in human MCF7 cells assessed as negative expression region (M1) at 25 nM incubated for 24 hrs by flow cytometry analysis (reference value: 0.98%); assay type: functional
[8] = Inhibition of HER2 expression in human MCF7 cells assessed as negative expression region (M1) at 500 nM incubated for 24 hrs by flow cytometry analysis (reference value: 0.98%); assay type: functional
[9] = Inhibition of EGFR expression in human MCF7 cells assessed as negative expression region (M1) at 500 nM incubated for 24 hrs by flow cytometry analysis (reference value: 0.66%); assay type: functional
[10] = Inhibition of HER2 expression in human MCF7 cells assessed as positive expression region (M2) at 25 nM incubated for 24 hrs by flow cytometry analysis (reference value: 99.09%); assay type: functional
[11] = Inhibition of EGFR expression in human MCF7 cells assessed as negative expression region (M1) at 50 nM incubated for 24 hrs by flow cytometry analysis (reference value: 0.66%); assay type: functional
[12] = Inhibition of HER2 expression in human MCF7 cells assessed as negative expression region (M1) at 100 nM incubated for 24 hrs by flow cytometry analysis (reference value: 0.98%); assay type: functional
[13] = Inhibition of HER2 expression in human MCF7 cells assessed as positive expression region (M2) at 1000 nM incubated for 24 hrs by flow cytometry analysis (reference value: 99.09%); assay type: functional
[14] = Inhibition of EGFR expression in human MCF7 cells assessed as negative expression region (M1) at 100 nM incubated for 24 hrs by flow cytometry analysis (reference value: 0.66%); assay type: functional
[15] = Inhibition of EGFR expression in human MCF7 cells assessed as positive expression region (M2) at 25 nM incubated for 24 hrs by flow cytometry analysis (reference value: 99.36%); assay type: functional
[16] = Inhibition of EGFR expression in human MCF7 cells assessed as negative expression region (M1) at 1000 nM incubated for 24 hrs by flow cytometry analysis (reference value: 0.66%); assay type: functional
[17] = Inhibition of HER2 expression in human MCF7 cells assessed as negative expression region (M1) at 1000 nM incubated for 24 hrs by flow cytometry analysis (reference value: 0.98%); assay type: functional
[18] = Inhibition of HER2 expression in human MCF7 cells assessed as negative expression region (M1) at 50 nM incubated for 24 hrs by flow cytometry analysis (reference value: 0.98%); assay type: functional
[19] = Inhibition of HER2 expression in human MCF7 cells assessed as positive expression region (M2) at 500 nM incubated for 24 hrs by flow cytometry analysis (reference value: 99.09%); assay type: functional
[20] = Inhibition of EGFR expression in human MCF7 cells assessed as negative expression region (M1) at 25 nM incubated for 24 hrs by flow cytometry analysis (reference value: 0.66%); assay type: functional
[21] = Inhibition of HER2 expression in human MCF7 cells assessed as positive expression region (M2) at 100 nM incubated for 24 hrs by flow cytometry analysis (reference value: 99.09%); assay type: functional
[22] = Inhibition of EGFR expression in human MCF7 cells assessed as positive expression region (M2) at 100 nM incubated for 24 hrs by flow cytometry analysis (reference value: 99.36%); assay type: functional

Compound COc1ccc(NC(=O)C2=C(C)NC(=S)NC2c2ccc(O)c(OC)c2)c(OC)c1 (stereo not drawn) has an IC50 at 3 days [1] of 42.5 µM and an IC50 (MCF7) of 20.3 µM.

COc1ccc(NC(=O)C2=C(C)NC(=S)NC2c2ccc(Br)cc2)c(OC)c1 (stereo not drawn) showed an IC50 at 3 days [1] of 61.2 µM and an IC50 (MCF7) of 37.5 µM.

For COc1ccc(C2NC(=O)NC(C)=C2C(=O)Nc2ccc(OC)cc2OC)cc1 (stereo not drawn), the IC50 at 3 days [1] was 56.2 µM and the IC50 (MCF7) was 24.3 µM.

Compound COc1ccc(NC(=O)C2=C(C)NC(=O)NC2/C=C\c2ccccc2)c(OC)c1 (stereo not drawn) has an IC50 at 3 days [1] of 30.4 µM and an IC50 (MCF7) of 19.3 µM.

With COc1ccc(NC(=O)C2=C(C)NC(=O)NC2c2ccccc2O)c(OC)c1 (stereo not drawn) the IC50 at 3 days [1] was 45.3 µM and the IC50 (MCF7) was 30.1 µM.

With COc1ccc(NC(=O)C2=C(C)NC(=S)NC2c2ccc(OC)c(OC)c2)c(OC)c1 (stereo not drawn) the IC50 at 3 days [1] was 43.9 µM and the IC50 (MCF7) was 17.3 µM.

COc1ccc(NC(=O)C2=C(C)NC(=O)NC2c2ccc(O)c(OC)c2)c(OC)c1 (stereo not drawn) gave an IC50 at 3 days [1] of 42.9 µM and an IC50 (MCF7) of 16.1 µM.

Compound COc1ccc(NC(=O)C2=C(C)NC(=S)NC2c2ccc(OCc3ccccc3)c(OC)c2)c(OC)c1 (stereo not drawn) has an inhibition at 0.05 µM [2] of 57.8%, an inhibition at 0.5 µM [3] of 17.4% and an IC50 at 3 days [1] of 52.9 µM. The IC50 [4] was 0.0768 µM, the inhibition at 1 µM [5] was 4.17% and the inhibition at 0.05 µM [6] was 38.4%. It also gave an inhibition at 0.025 µM [7] of 14.9%, an inhibition at 0.5 µM [8] of 78.4% and an inhibition at 0.5 µM [9] of 83.2%. It also gave an inhibition at 0.025 µM [10] of 85.5%, an inhibition at 0.05 µM [11] of 62.4% and an inhibition at 0.1 µM [12] of 72.1%. It also gave an inhibition at 1 µM [13] of 7.42%, an inhibition at 0.1 µM [14] of 80.5% and an inhibition at 0.025 µM [15] of 68.7%. It also gave an inhibition at 1 µM [16] of 96%, an inhibition at 1 µM [17] of 92.7% and an IC50 (MCF7) of 17 µM. The inhibition at 0.05 µM [18] was 42.6%, the inhibition at 0.5 µM [19] was 22.3% and the inhibition at 0.025 µM [20] was 32.1%. For the same compound, the inhibition at 0.1 µM [21] was 28.3% and the inhibition at 0.1 µM [22] was 20.1%.

COc1ccc(NC(=O)C2=C(C)NC(=O)NC2c2ccc(OCc3ccccc3)c(OC)c2)c(OC)c1 (stereo not drawn) showed an inhibition at 0.05 µM [2] of 22.4%, an inhibition at 0.5 µM [3] of 9.15% and an IC50 at 3 days [1] of 18.4 µM. For the same compound, the inhibition at 1 µM [5] was 1.49%, the inhibition at 0.05 µM [6] was 33.8% and the inhibition at 0.025 µM [7] was 57.5%. For the same compound, the inhibition at 0.5 µM [8] was 95%, the inhibition at 0.5 µM [9] was 91.1% and the inhibition at 0.025 µM [10] was 43%. For the same compound, the inhibition at 0.05 µM [11] was 66.7%, the inhibition at 0.1 µM [12] was 88.7% and the inhibition at 1 µM [13] was 3.21%. For the same compound, the inhibition at 0.1 µM [14] was 84.3%, the inhibition at 0.025 µM [15] was 63.2% and the inhibition at 1 µM [16] was 98.6%. It also gave an inhibition at 1 µM [17] of 96.9%, an IC50 (MCF7) of 9.38 µM and an inhibition at 0.05 µM [18] of 77.9%. The inhibition at 0.5 µM [19] was 5.16%, the inhibition at 0.025 µM [20] was 37.6% and the inhibition at 0.1 µM [21] was 11.6%. The inhibition at 0.1 µM [22] was 16.1%.

For COc1ccc(NC(=O)C2=C(C)NC(=O)NC2c2ccc(Br)cc2)c(OC)c1 (stereo not drawn), the IC50 at 3 days [1] was 49.4 µM and the IC50 (MCF7) was 31.6 µM.

Work on COc1ccc(NC(=O)C2=C(C)NC(=O)NC2c2cccc(Br)c2)c(OC)c1 (stereo not drawn) yielded an IC50 at 3 days [1] of 48.1 µM and an IC50 (MCF7) of 31.2 µM.

COc1ccc(NC(=O)C2=C(C)NC(=S)NC2c2ccco2)c(OC)c1 (stereo not drawn) showed an IC50 at 3 days [1] of 45.5 µM and an IC50 (MCF7) of 38.3 µM.

Compound CCOc1cc(C2NC(=O)NC(C)=C2C(=O)Nc2ccc(OC)cc2OC)ccc1O (stereo not drawn) has an IC50 at 3 days [1] of 58.2 µM and an IC50 (MCF7) of 21 µM.

For COc1ccc(NC(=O)C2=C(C)NC(=O)NC2c2ccc(Cl)cc2)c(OC)c1 (stereo not drawn), the IC50 at 3 days [1] was 62.7 µM and the IC50 (MCF7) was 32.4 µM.

COc1ccc(NC(=O)C2=C(C)NC(=O)NC2c2ccccc2[N+](=O)[O-])c(OC)c1 (stereo not drawn) showed an IC50 at 3 days [1] of 55.3 µM and an IC50 (MCF7) of 40.1 µM.

For COc1ccc(NC(=O)C2=C(C)NC(=O)NC2c2ccco2)c(OC)c1 (stereo not drawn), the IC50 at 3 days [1] was 62.4 µM and the IC50 (MCF7) was 27.4 µM.

COc1ccc(NC(=O)C2=C(C)NC(=S)NC2c2ccc(Cl)cc2)c(OC)c1 (stereo not drawn) gave an IC50 at 3 days [1] of 48.3 µM and an IC50 (MCF7) of 38.7 µM.

Work on COc1ccc(NC(=O)C2=C(C)NC(=O)NC2c2ccccc2)c(OC)c1 (stereo not drawn) yielded an IC50 at 3 days [1] of 60.4 µM and an IC50 (MCF7) of 38.2 µM.

CS(=O)(=O)CCNCc1ccc(-c2ccc3ncnc(Nc4ccc(OCc5cccc(F)c5)c(Cl)c4)c3c2)o1 [LAPATINIB] gave an IC50 at 3 days [1] of 19.3 µM, an inhibition at 0.1 µM [12] of 93% and an inhibition at 0.1 µM [14] of 94.3%. For the same compound, the IC50 (MCF7) was 3.38 µM, the inhibition at 0.1 µM [21] was 7.15% and the inhibition at 0.1 µM [22] was 5.88%.

Reference: ChEMBL document CHEMBL5584246, “Novel dihydropyrimidines as promising EGFR & HER2 inhibitors: Insights from experimental and computational studies” (Eur J Med Chem, 2024)
